For orientation: pIC50 means the IC50 on a negative log10 scale, so that one unit is a factor of ten. Higher therefore signals a low IC50.

The structures appear in SMILES notation. pIC50: −log10 of the molar value.

The target in this assay is T1, Estrogen receptor (Homo sapiens, UniProt P03372).
T1 sequence (P03372 whole entry): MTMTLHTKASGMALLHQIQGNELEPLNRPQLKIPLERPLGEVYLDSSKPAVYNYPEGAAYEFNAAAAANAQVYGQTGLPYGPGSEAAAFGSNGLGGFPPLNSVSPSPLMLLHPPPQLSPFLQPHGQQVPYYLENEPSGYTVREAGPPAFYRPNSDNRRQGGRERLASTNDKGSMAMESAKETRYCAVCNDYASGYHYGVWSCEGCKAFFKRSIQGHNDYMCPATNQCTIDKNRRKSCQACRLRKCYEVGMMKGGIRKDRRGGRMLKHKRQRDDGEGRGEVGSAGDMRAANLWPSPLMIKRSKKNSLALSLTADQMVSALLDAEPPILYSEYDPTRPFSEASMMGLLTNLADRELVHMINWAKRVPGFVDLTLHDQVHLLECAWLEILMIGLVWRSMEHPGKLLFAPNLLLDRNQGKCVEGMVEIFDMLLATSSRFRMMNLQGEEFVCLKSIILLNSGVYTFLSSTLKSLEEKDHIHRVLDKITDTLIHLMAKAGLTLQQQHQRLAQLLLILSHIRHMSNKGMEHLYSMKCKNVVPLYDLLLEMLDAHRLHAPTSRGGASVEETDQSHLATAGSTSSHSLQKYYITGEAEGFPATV
Nature of the assay: Displacement of fluorescent labeled-ligand from ERalpha (unknown origin) by competitive binding assay.

`CC/C(=C(\c1ccccc1)c1cccc(OCCCN2CCCCC2)c1)c1ccccc1` gave a pIC50 of 6.48.
Take `CC/C(=C(\c1ccc(O)cc1)c1cccc(OCCN(CC)CC)c1)c1ccccc1`: the pIC50 was 7.45.
With `CC/C(=C(\c1ccccc1)c1cccc(OCCCN(CC)CC)c1)c1ccccc1`, the pIC50 is 6.46. This pIC50 lies 0.99 log units lower than the previous one.
As for `CC/C(=C(\c1ccc(O)cc1)c1cccc(OCCN2CCCCC2)c1)c1ccccc1`, the figure is 7.68; as for `CC/C(=C(\c1ccc(O)cc1)c1cccc(OCCCN(C)C)c1)c1ccccc1`, 8.06; as for `CC/C(=C(\c1ccccc1)c1cccc(OCCN2CCCC2)c1)c1ccccc1`, 7.09.
As for `CC/C(=C(\c1ccc(O)cc1)c1cccc(OCCCN2CCCC2)c1)c1ccccc1`, the figure is 7.97; as for `CC/C(=C(\c1ccccc1)c1cccc(OCCCN(C)C)c1)c1ccccc1`, 6.91; as for `CC/C(=C(\c1ccc(O)cc1)c1cccc(OCCN2CCCC2)c1)c1ccccc1`, 7.79.
The figure for `CC/C(=C(\c1ccc(O)cc1)c1cccc(OCCN(C)C)c1)c1ccccc1` is 7.61; for `CC/C(=C(\c1ccccc1)c1cccc(OCCN(C)C)c1)c1ccccc1` it is 6.59.
In the case of `CC/C(=C(\c1ccccc1)c1cccc(OCCN2CCCCC2)c1)c1ccccc1`, the pIC50 is 6.37. This pIC50 is 0.22 log units lower than that of the molecule before.
On to `CC/C(=C(\c1ccc(O)cc1)c1cccc(OCCCN(CC)CC)c1)c1ccccc1`, for which the pIC50 was 7.82.
As for `CC/C(=C(\c1ccccc1)c1cccc(OCCCN2CCCC2)c1)c1ccccc1`, the figure is 6.44; as for `CC/C(=C(\c1ccc(O)cc1)c1cccc(OCCCN2CCCCC2)c1)c1ccccc1`, 7.41.
`CC/C(=C(\c1ccccc1)c1cccc(OCCN(CC)CC)c1)c1ccccc1` showed a pIC50 of 6.24.
